The values that follow are results of earlier work, collected in patent US8409637B2, “Compositions and methods for treating and preventing migrainous headaches and associated symptoms” (Puramed Bioscience Inc., priority 2007, dated 2013).

In data set [1] the test system is COX-1.
In data set [2] the target is T1, COX-2 (Homo sapiens, UniProt P35354).
T1 sequence (P35354 18-604): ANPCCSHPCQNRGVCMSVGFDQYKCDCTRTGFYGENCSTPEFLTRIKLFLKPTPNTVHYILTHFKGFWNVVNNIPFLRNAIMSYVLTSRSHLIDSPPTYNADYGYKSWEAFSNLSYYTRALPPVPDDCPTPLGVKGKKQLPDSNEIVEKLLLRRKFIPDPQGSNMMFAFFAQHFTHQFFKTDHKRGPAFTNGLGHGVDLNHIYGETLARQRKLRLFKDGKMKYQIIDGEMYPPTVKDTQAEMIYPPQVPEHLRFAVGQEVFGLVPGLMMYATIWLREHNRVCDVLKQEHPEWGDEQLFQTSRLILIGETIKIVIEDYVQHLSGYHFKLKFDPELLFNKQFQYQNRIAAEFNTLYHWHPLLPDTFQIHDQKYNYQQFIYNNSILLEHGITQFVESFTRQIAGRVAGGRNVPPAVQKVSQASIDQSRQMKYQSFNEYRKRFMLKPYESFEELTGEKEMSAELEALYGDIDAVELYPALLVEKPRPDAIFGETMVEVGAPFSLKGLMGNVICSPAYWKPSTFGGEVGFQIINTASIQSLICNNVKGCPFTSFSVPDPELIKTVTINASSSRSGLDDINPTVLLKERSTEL

The structures appear in SMILES notation.

Turning to `C/C=C(/C=O)[C@@H](CC=O)CC(=O)OCCc1ccc(O)cc1` [oleocanthal], the “Inhibition of COX-1 enzyme activity” value in data set [1] is listed as “inhibits”. For the same compound, in data set [2], the “Inhibition of COX-2 enzyme activity” value was “inhibits”.
